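How tested: cells in 96-well plates exposed to compound for 48 hours at five concentrations. At the GI50, growth is halved. At the TGI there is no net growth.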
Legend:
Assay in all cases: NCI anticancer screen, dose series, 48 h
[1] = test system: A498 renal
[2] = test system: UO-31 renal
[3] = test system: NCI-H226 lung
[4] = test system: OVCAR-5 ovarian
[5] = test system: HL-60(TB) leukemia
[6] = test system: RXF 393 renal
[7] = test system: CAKI-1 renal
[8] = test system: ACHN renal
[9] = test system: MDA-MB-231 breast
[10] = test system: SF-295 CNS
[11] = test system: NCI/ADR-RES ovarian
[12] = test system: EKVX NSCLC
[13] = test system: CCRF-CEM leukemia
[14] = test system: SNB-19 CNS
[15] = test system: LOX IMVI melanoma
[16] = test system: HOP-62 NSCLC
[17] = test system: KM12 colon
[18] = test system: SK-MEL-5 melanoma
[19] = test system: COLO 205 colon
[20] = test system: OVCAR-3 ovarian
[21] = test system: HT29 colon
[22] = test system: SR leukemia
[23] = test system: UACC-257 melanoma
[24] = test system: SF-539 CNS
[25] = test system: SF-268 CNS
[26] = test system: SNB-75 CNS
[27] = test system: HOP-92 NSCLC
[28] = test system: HCT-15 colon
[29] = test system: DU-145 prostate
[30] = test system: PC-3 prostate
[31] = test system: RPMI-8226 leukemia
[32] = test system: MDA-MB-435
[33] = test system: MCF7 breast
[34] = test system: M14 melanoma
[35] = test system: NCI-H23 lung
[36] = test system: A549 NSCLC
[37] = test system: HS 578T breast
[38] = test system: SN12C renal
[39] = test system: 786-0 renal
[40] = test system: NCI-H460 lung
[41] = test system: T-47D breast
[42] = test system: SK-OV-3 ovarian
[43] = test system: SK-MEL-2 melanoma
[44] = test system: U251 CNS
[45] = test system: IGROV1 ovarian
[46] = test system: BT-549 breast
[47] = test system: NCI-H522 lung
[48] = test system: OVCAR-4 ovarian
[49] = test system: TK-10 renal
[50] = test system: K-562 leukemia
[51] = test system: HCC-2998 colon
[52] = test system: HCT-116 colon
[53] = test system: MALME-3M melanoma
[54] = test system: UACC-62 melanoma
[55] = test system: SW-620 colon
[56] = test system: MOLT-4 leukemia
[57] = test system: OVCAR-8 ovarian
[58] = test system: SK-MEL-28 melanoma

`CCOc1ccccc1N=Nc1c(C)[nH]n(-c2nc(-c3ccccc3)cs2)c1=O` was tested, and the GI50 [1] was 23.5 µM, the TGI [1] was > 100 µM and the GI50 [2] was > 65.1 µM. For the same compound, the TGI [2] was > 100 µM, the GI50 [3] was 32.5 µM and the TGI [3] was > 100 µM. The GI50 [4] was > 100 µM, the TGI [4] was > 100 µM and the GI50 [5] was > 100 µM. For the same compound, the TGI [5] was > 100 µM, the GI50 [6] was 16.4 µM and the TGI [6] was 38.4 µM. For the same compound, the GI50 [7] was > 54.2 µM, the TGI [7] was > 100 µM and the GI50 [8] was 42.3 µM. The TGI [8] was > 100 µM, the GI50 [9] was 44 µM and the TGI [9] was > 100 µM. For the same compound, the GI50 [10] was 28.3 µM, the TGI [10] was > 100 µM and the GI50 [11] was 37.6 µM. The TGI [11] was > 100 µM, the GI50 [12] was 32.6 µM and the TGI [12] was > 100 µM. For the same compound, the GI50 [13] was > 100 µM, the TGI [13] was > 100 µM and the GI50 [14] was 43.1 µM. The TGI [14] was > 100 µM, the GI50 [15] was > 100 µM and the TGI [15] was > 100 µM. The GI50 [16] was 35.1 µM, the TGI [16] was > 100 µM and the GI50 [17] was > 100 µM. The TGI [17] was > 100 µM, the GI50 [18] was 41.6 µM and the TGI [18] was > 100 µM. The GI50 [19] was > 100 µM, the TGI [19] was > 100 µM and the GI50 [20] was 57.7 µM. For the same compound, the TGI [20] was > 100 µM, the GI50 [21] was 97.9 µM and the TGI [21] was > 100 µM. The GI50 [22] was > 100 µM, the TGI [22] was > 100 µM and the GI50 [23] was 52.5 µM. For the same compound, the TGI [23] was > 100 µM, the GI50 [24] was 27.5 µM and the TGI [24] was > 100 µM. The GI50 [25] was 35.4 µM, the TGI [25] was > 100 µM and the GI50 [26] was 14.3 µM. For the same compound, the TGI [26] was 48.3 µM, the GI50 [27] was 21.9 µM and the TGI [27] was > 96.8 µM. The GI50 [28] was > 100 µM, the TGI [28] was > 100 µM and the GI50 [29] was 53.2 µM. For the same compound, the TGI [29] was > 100 µM, the GI50 [30] was 34.7 µM and the TGI [30] was > 100 µM. For the same compound, the GI50 [31] was > 100 µM, the TGI [31] was > 100 µM and the GI50 [32] was > 100 µM. For the same compound, the TGI [32] was > 100 µM, the GI50 [33] was 12.4 µM and the TGI [33] was > 100 µM. For the same compound, the GI50 [34] was > 100 µM, the TGI [34] was > 100 µM and the GI50 [35] was > 74.1 µM. For the same compound, the TGI [35] was > 100 µM, the GI50 [36] was 49.9 µM and the TGI [36] was > 100 µM. For the same compound, the GI50 [37] was 29.2 µM, the TGI [37] was > 95.1 µM and the GI50 [38] was > 94.8 µM. For the same compound, the TGI [38] was > 100 µM, the GI50 [39] was 35.4 µM and the TGI [39] was > 100 µM. For the same compound, the GI50 [40] was 37.5 µM, the TGI [40] was > 100 µM and the GI50 [41] was 30.1 µM. The TGI [41] was > 100 µM, the GI50 [42] was 38.9 µM and the TGI [42] was > 100 µM. For the same compound, the GI50 [43] was 27.3 µM, the TGI [43] was > 100 µM and the GI50 [44] was 36.2 µM. The TGI [44] was > 100 µM, the GI50 [45] was 25.8 µM and the TGI [45] was > 85.3 µM. For the same compound, the GI50 [46] was 29.2 µM, the TGI [46] was > 100 µM and the GI50 [47] was 22.1 µM. For the same compound, the TGI [47] was 87.6 µM, the GI50 [48] was 25 µM and the TGI [48] was > 84.5 µM. For the same compound, the GI50 [49] was 43.4 µM, the TGI [49] was > 94.2 µM and the GI50 [50] was > 100 µM. For the same compound, the TGI [50] was > 100 µM, the GI50 [51] was > 100 µM and the TGI [51] was > 100 µM. The GI50 [52] was 52.3 µM, the TGI [52] was > 100 µM and the GI50 [53] was 60.9 µM. The TGI [53] was > 100 µM, the GI50 [54] was 35.6 µM and the TGI [54] was > 100 µM. The GI50 [55] was > 100 µM, the TGI [55] was > 100 µM and the GI50 [56] was > 100 µM. For the same compound, the TGI [56] was > 100 µM, the GI50 [57] was 29 µM and the TGI [57] was > 100 µM. For the same compound, the GI50 [58] was > 84.9 µM and the TGI [58] was > 100 µM.

— PubChem BioAssay (NCI)
